Laboratory results: patent publication US20220257774A1, “AROMATIC AMINE AR AHD BET TARGETING PROTEIN DEGRADATION CHIMERA COMPOUND AND USE” (HINOVA PHARMACEUTICALS INC., priority 2019, published 2022)
Where two headings read alike, the source gives them in different places.

Legend:
Assay type in all cases: cell-based
LNCaP/AR cells = test: Inhibition of the proliferation of LNCap/AR cells (CCK-8); conditions: read-out: LNCap/AR IC50
How it was run: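 LNCaP/AR cells (1000/well, RPMI1640 + 10% FBS) were treated for 6 days at 37 °C with 9-point 3-fold dilutions from 10 μM final, 0.1% DMSO, in duplicate. Viability was read by CCK-8 absorbance at 450 nm after 1 h, and IC50 came from a dose-response-inhibition fit.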

Androgen receptor (AR) = test: Down-regulation/degradation of AR determined by Western blot in CWR22RV1 cells; conditions: concentration 100 nM, 24 h
Description: (§1) The Down-Regulation on the Protein Expression of Androgen Receptors AR and Brd4 Determined by Western Blot CWR22RV1 cells (National Collection of Authenticated Cell Cultures. TCHu100) FBS (Gibco, Cat. No. 10099-141) 0.01M PBS (Biosharp. Cat. No. 162262) RIPM1640 (Hyclone, Cat. No. 308090.01) Penicillin-Streptomycin (Hyclone. Cat. No. SV30010) DMSO (Sigma. Cat. No. D5879) Centrifuge tube, 15 ml (Excell Bio. Cat. No. CS015-0001) Cell culture plate (Excell Bio. Cat. No. CS016-0128) 6-well cell culture cluster (Corning, Cat. No. 3516) RIPA lysate buffer (Beyotime, Cat. No. P0013B) Protein loading buffer (Beyotime, Cat. No. P0015L) CA protein assay kit (Beyotime, Cat. No. P0012) SDS-PAGE gel preparation kit (Chengdu Baihe Technology Co., Ltd. Cat. No. PG112) Anti-β-tubulin mouse mAb (Zen Bioscience, Cat. No. 200608) Androgen Receptor ([…]) XP Rabbit mAb (CST. Cat. No. 5153) Anti-cMyc(D3N8F) Rabbit mAb (CST. Cat. No. 13987) Anti-BRD4(E2A7X) rabbit mAb (CST, Cat. No. 13440) Peroxidase Affinipure(HRP) Goat Anti-Mouse IgG (Zen Bioscience, Cat. No. 511103) Peroxidase Affinipure(HRP) Goat Anti-Rabbit IgG (Zen Bioscience, Cat. No. 511203) TBST (Biosharp. Cat. No. B[…]) ECL chemiluminescence kit (Beyotime, Cat. No. […]1 cells were subcultured in cell culture media, and then the cells in good growth condition were seeded in a 6-well plate at 2 ml/well (1×10^6 cells/well), and cultured overnight in a 37° C., 5% CO2 cell incubator. 2) The drug was prepared as a 10 mM stock solution with dimethyl sulfoxide (DMSO). […] The plate was gently tapped to thoroughly mix. In addition, the experiment included negative control wells (containing equal amount of DMSO) and positive control wells. 3) After culturing 24 hi, the cells were lysed with RIPA cell lysate, and the protein was extracted. […] The first antibody (Androgen Receptor ([…]) XP Rabbit mAb. Anti-cMyc(D3N8F) Rabbit mAb, Anti-BRD4(E2A7X) rabbit mAb and Anti-β-Tubulin Mouse mAb) was added and incubated overnight at 4° C. The membrane was rinsed with TBST solution three times, 10 min for each time. The secondary antibody (horseradish peroxidase labeled goat anti mouse IgG) was added and incubated at room temperature for 2 h, and then the membrane was washed with TBST solution three times, 10 m for each time. Finally. ECL chemiluminescence solution was added, and then photos were taken with automatic chemiluminescence instrument to collect pictures for analysis.

BRD4 = molecular target: T1, BRD4 (Homo sapiens, UniProt O60885); test: Down-regulation/degradation of BRD4 determined by Western blot in CWR22RV1 cells; conditions: concentration 100 nM, 24 h
T1 construct: CWR22RV1 cells were subcultured in cell culture media; endogenous in cells; host or cells: CWR22RV1 cells
Description: as §1

22RV1 cells = test: Inhibition of the proliferation of drug-resistant prostate cancer cell 22RV1 (CCK-8); conditions: 22RV1 cells (enzalutamide-resistant), same method
How it was run: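 22RV1 cells, 1000/well in RPMI1640 with 10% FBS, treated in duplicate with 9-point 3-fold dilutions from 10 μM (0.1% DMSO final). After 6 days at 37 °C, CCK-8 added for 1 h and OD450 read. IC50 from dose-response inhibition fit.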

[1] = 144 h, LNCaP/AR cells, 6 days culture, CCK-8
[2] = LNCaP/AR cells, 6 days culture, CCK-8

IC50 (LNCaP/AR cells; [1]) | IC50 (22RV1 cells; Homo sapiens) | IC50 (22RV1 cells) | IC50 (LNCaP/AR cells; [2]) | Structure (SMILES) | AR (% degradation) (Androgen receptor (AR)) | BRD4 (% degradation) (BRD4) | IC50 (LNCaP/AR cells; LNCaP/AR, 144 h)
101 to 500 nM | < 100 nM |  |  | Cc1ccc(-c2c(C)noc2C)cc1N(CCCOC1CN(c2cc3c(cc2F)C(=O)N(C2CCC(=O)NC2=O)C3)C1)c1ccc(C2(C#N)CC2)cc1 (stereo not shown) [Compound 124, 1-(4-((5-(3,5-dimethylisoxazol-4-yl)-2-methylphenyl)(3-((1-(2-(2,6-dioxopiperidin-3-yl)-6-fluoro-1-oxoisoindolin-5-yl)azetidin-3-yl)oxy)propyl)amino)phenyl)cyclopropane-1-nitrile] | B (79%-50% of the target protein was degraded) | B (79%-50% of the target protein was degraded) | 
< 100 nM |  |  |  | Cc1ccc(-c2c(C)noc2C)cc1N(CCCCCNc1ccc2c(c1)CN(C1CCC(=O)NC1=O)C2=O)c1ccc(C2(C#N)CC2)cc1 (stereo not shown) [Compound 145, 1-(4-((5-(3,5-dimethylisoxazol-4-yl)-2-methylphenyl)(5-((2-(2,6-dioxopiperidin-3)-1-isoindolinone-5-yl))amino)pentyl)amino)phenylcyclopropanecarbonitrile] | C (49%-20% of the target protein was degraded) | C (49%-20% of the target protein was degraded) | 
< 100 nM | < 100 nM |  |  | Cc1ccc(-c2c(C)noc2C)cc1N(C[C@H]1CC[C@H](CNc2cc3c(cc2F)CN(C2CCC(=O)NC2=O)C3=O)CC1)c1ccc(C2(C#N)CC2)cc1 (stereo partly shown) [Compound 168] | C (49%-20% of the target protein was degraded) | A (>80% of the target protein was degraded) | 
 |  | < 100 nM | < 100 nM | Cc1ccc(-c2c(C)noc2C)cc1N(C[C@H]1CC[C@H](CNc2cc3c(cc2F)C(=O)N(C2CCC(=O)NC2=O)C3=O)CC1)c1ccc(C#N)c(Cl)c1 (stereo partly shown) [Compound 131] | C (49%-20% of the target protein was degraded) | A (>80% of the target protein was degraded) | 
< 100 nM | < 100 nM |  |  | Cc1ccc(-c2c(C)noc2C)cc1N(CC(C)OC1CN(c2cc3c(cc2F)C(=O)N(C2CCC(=O)NC2=O)C3)C1)c1ccc(C2(C#N)CC2)cc1 (stereo not shown) [Compound 178, 1-(4-((5-(3,5-dimethylisoxazol-4-yl)-2-methylphenyl)(2-((1-(2-(2,6-dioxopiperidin-3-yl)-6-fluoro-1-oxoisoindolin-5-yl)azetidin-3-yl)oxy)propyl)amino)phenyl)cyclopropane-1-nitrile] | B (79%-50% of the target protein was degraded) | A (>80% of the target protein was degraded) | 
< 100 nM | < 100 nM |  |  | Cc1ccc(-c2c(C)noc2C)cc1N(CC1CN(C2CN(c3cc4c(cc3F)C(=O)N(C3CCC(=O)NC3=O)C4)C2)C1)c1ccc(C2(C#N)CC2)cc1 (stereo not shown) [Compound 157] | B (79%-50% of the target protein was degraded) | A (>80% of the target protein was degraded) | 
< 100 nM |  |  |  | Cc1ccc(-c2c(C)noc2C)cc1N(CCCCCNc1ccc2c(c1)C(=O)N(C1CCC(=O)NC1=O)C2=O)c1ccc(C2(C#N)CC2)cc1 (stereo not shown) [Compound 147, 1-(4-((5-(3,5-Dimethylisoxazol-4-yl)-2-methylphenyl)(5-((2-(2,6-dioxopiperidin-3)-1,3-dicarbonylisoindolin-5))amino)pentyl)amino)phenylcyclopropanecarbonitrile] | C (49%-20% of the target protein was degraded) | A (>80% of the target protein was degraded) | 
> 2000 nM | > 2000 nM |  |  | Cc1ccc(-c2c(C)noc2C)cc1N(CC(C)OC1CN(c2ccc3c(c2)C(=O)N(C2CCC(=O)NC2=O)C3)C1)c1ccc(C2(C#N)CC2)cc1 (stereo not shown) [Compound 179, 1-(4-((5-(3,5-Dimethylisoxazol-4-yl)-2-methylphenyl)(2-((1-(2-(2,6-dioxopiperidin-3-yl)-3-oxoisoindolin-5-yl)azacyclobutane-3-yl)oxy)propyl)amino)phenyl)cyclopropane-1-nitrile] |  |  | 

The remaining lines, values behind:

Structure (SMILES) | IC50 (LNCaP/AR cells; [1]) | IC50 (22RV1 cells; Homo sapiens) | IC50 (22RV1 cells) | IC50 (LNCaP/AR cells; [2]) | AR (% degradation) (Androgen receptor (AR)) | BRD4 (% degradation) (BRD4) | IC50 (LNCaP/AR cells; LNCaP/AR, 144 h)
Cc1ccc(-c2c(C)noc2C)cc1N(CCCCCOCC(=O)N[C@H](C(=O)N1C[C@H](O)C[C@H]1C(=O)N[C@@H](C)c1ccc(-c2scnc2C)cc1)C(C)(C)C)c1ccc(-n2ccnc2)c(Br)c1 [Compound 10, (2S,4R)-1-((S)-2-(2-((5-((3-bromo-4-(1H-imidazol-1-yl)phenyl)(5-(3,5-dimethylisoxazol-4-yl)-2-methylphenyl)amino)n-pentyl)oxy)acetylamino)-3,3-dimethylbutyryl)-4-hydroxy-N—((S)-1-(4-(4-methylthiazol-5-yl)phenyl)ethyl)pyrrolidinyl-2-formamide] | < 100 nM |  |  |  | B (79%-50% of the target protein was degraded) | B (79%-50% of the target protein was degraded) | 
Cc1ccc(-c2c(C)noc2C)cc1N(c1ccc(C2(C#N)CC2)cc1)C1CN([C@H]2C[C@H](Nc3cc4c(cc3F)CN([C@@H]3CCC(=O)NC3=O)C4=O)C2)C1 [Compound 70] |  |  | < 100 nM | 501 to 2000 nM | C (49%-20% of the target protein was degraded) | C (49%-20% of the target protein was degraded) | 
Cc1ccc(-c2c(C)noc2C)cc1N(CCCCNc1ccc2c(c1)C(=O)N(C1CCC(=O)NC1=O)C2=O)c1ccc(C#N)c(Cl)c1 (stereo not shown) [Compound 165, 2-Chloro-4-((5-(3,5-dimethylisoxazol-4-yl)-2-methylphenyl)(4-((2-(2,6-dioxopiperidin-3)-1,3-dioxyisoindolin-5-yl)amino)butyl)amino)benzonitrile] |  | > 2000 nM |  |  | C (49%-20% of the target protein was degraded) | A (>80% of the target protein was degraded) | 501 to 2000 nM
Cc1ccc(-c2c(C)noc2C)cc1N(C[C@H]1CC[C@H](CNc2ccc3c(c2)C(=O)N(C2CCC(=O)NC2=O)C3=O)CC1)c1ccc(C2(C#N)CC2)cc1 (stereo partly shown) [Compound 149] | < 100 nM | < 100 nM |  |  | A (>80% of the target protein was degraded) | A (>80% of the target protein was degraded) | 
Cc1ccc(-c2c(C)noc2C)cc1N(CCOC1(C)CN(c2cc3c(cc2F)C(=O)N(C2CCC(=O)NC2=O)C3=O)C1)c1ccc(C2(C#N)CC2)cc1 (stereo not shown) [Compound 111, 1-(4-((5-(3,5-Dimethylisoxazol-4-yl)-2-methylphenyl)(2-((1-(2-(2,6-dioxopiperidin-3-yl)-6-fluoro-1,3-dioxoisoindolin-5-yl)-3-methylazetidin-3-yl)oxy)ethyl)amino)phenyl)cyclopropanecarbonitrile] | > 2000 nM | 101 to 500 nM |  |  | D (<20% of the target protein was degraded) | D (<20% of the target protein was degraded) | 
Cc1ccc(-c2c(C)noc2C)cc1N(CC1CC(Nc2cc3c(cc2F)C(=O)N(C2CCC(=O)NC2=O)C3)C1)c1ccc(C2(C#N)CC2)cc1 (stereo not shown) [Compound 39] | 501 to 2000 nM | < 100 nM |  |  | C (49%-20% of the target protein was degraded) | C (49%-20% of the target protein was degraded) | 
Cc1ccc(-c2c(C)noc2C)cc1N(CC1CC(Nc2cc3c(cc2F)C(=O)N(C2CCC(=O)NC2=O)C3=O)C1)c1ccc(C2(C#N)CC2)cc1 (stereo not shown) [Compound 37] | 501 to 2000 nM | 101 to 500 nM |  |  | D (<20% of the target protein was degraded) | D (<20% of the target protein was degraded) | 
